Patent US9273058B2 (BRISTOL-MYERS SQUIBB COMPANY, priority 2013, dated 2016)
Where two headings read alike, the source gives them in different places.

How the values were obtained:
[1] = molecular target: CK1ε (Homo sapiens, UniProt P49674); assay: CK1ε kinase assay (Caliper LabChip electrophoretic separation of fluoresceinated peptide substrate and product); format: biochemical; conditions: 200 pM CK1ε, 50 μM ATP, 1.5 μM peptide, 22 hours at room temperature
Description: CK1ε and CK1δ Kinase Assays
The kinase assay was performed in V-bottom 384-well plates. […] The reaction was incubated at room temperature for 22 hours and terminated by adding 45 μl of 35 mM EDTA to each sample. The reaction mixture was analyzed on the Caliper LABCHIP®3000 (Caliper, Hopkinton, Mass.) by electrophoretic separation of the unphosphorylated substrate and phosphorylated product. […] Compounds were dissolved at 10 mM in dimethylsulfoxide (DMSO) and evaluated at eleven concentrations. IC50 values were derived by non-linear regression analysis.

[2] = molecular target: CK1δ (Homo sapiens, UniProt P48730); assay: CK1δ kinase assay (Caliper LabChip electrophoretic separation of fluoresceinated peptide substrate and product); format: biochemical; conditions: 200 pM CK1δ, 50 μM ATP, 1.5 μM peptide, 22 hours at room temperature
Method in brief: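 Compounds, taken from 10 mM DMSO stocks, are titrated at eleven concentrations. Kinase reactions proceed for 22 hours at room temperature and are quenched with EDTA. Substrate and product are resolved electrophoretically, and IC50 values are fitted by non-linear regression.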

CK1δ, sequence (P48730 whole entry): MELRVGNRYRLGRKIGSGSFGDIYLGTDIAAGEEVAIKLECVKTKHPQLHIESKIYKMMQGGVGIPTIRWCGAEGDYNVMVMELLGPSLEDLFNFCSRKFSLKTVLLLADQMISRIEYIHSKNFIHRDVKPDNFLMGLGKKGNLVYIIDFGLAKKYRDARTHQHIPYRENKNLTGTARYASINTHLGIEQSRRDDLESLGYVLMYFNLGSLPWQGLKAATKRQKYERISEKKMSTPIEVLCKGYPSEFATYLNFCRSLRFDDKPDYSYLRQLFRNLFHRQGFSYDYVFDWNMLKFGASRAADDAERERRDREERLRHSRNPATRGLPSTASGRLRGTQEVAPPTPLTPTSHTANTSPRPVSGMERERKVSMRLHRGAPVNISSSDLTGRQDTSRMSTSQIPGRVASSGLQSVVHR
CK1ε, sequence (P49674 whole entry): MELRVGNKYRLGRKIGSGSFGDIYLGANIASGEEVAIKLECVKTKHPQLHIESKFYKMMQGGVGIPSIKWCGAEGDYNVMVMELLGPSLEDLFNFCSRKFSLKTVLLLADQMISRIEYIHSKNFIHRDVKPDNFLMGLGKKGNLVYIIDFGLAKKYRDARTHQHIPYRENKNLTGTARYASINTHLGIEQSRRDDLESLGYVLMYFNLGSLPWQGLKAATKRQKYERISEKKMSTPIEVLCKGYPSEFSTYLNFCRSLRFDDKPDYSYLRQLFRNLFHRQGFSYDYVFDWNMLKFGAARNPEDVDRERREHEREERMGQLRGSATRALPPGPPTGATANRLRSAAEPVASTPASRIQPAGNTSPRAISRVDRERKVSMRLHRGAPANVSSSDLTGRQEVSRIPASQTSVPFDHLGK

IC50 ([1]; read-out: CK1ε IC50 range)	IC50 ([2]; read-out: CK1δ IC50 range)	IC50 ([1]; read-out: CK1ε)	IC50 ([2]; read-out: CK1δ)	Structure (SMILES)
0.01 to 10 nM	0.01 to 10 nM			N#Cc1ccc(C23CCC(NC(=O)N4CCn5nc(-c6ccc(F)c(Cl)c6)c(C(N)=O)c5C4)(CC2)CC3)cc1 [Compound A51, 2-(3-Chloro-4-fluorophenyl)-N^5-(4-(4-cyanophenyl)bicyclo[2.2.2]octan-1-yl)-6,7-dihydropyrazolo[1,5-a]pyrazine-3,5(4H)-dicarboxamide]
0.01 to 10 nM	0.01 to 10 nM			CC(C)(O)C12CCC(NC(=O)N3CCn4nc(-c5ccc(F)c(Cl)c5)c(C(N)=O)c4C3)(CC1)CC2 [Compound A62, 2-(3-Chloro-4-fluorophenyl)-N^5-(4-(2-hydroxypropan-2-yl)bicyclo[2.2.2]octan-1-yl)-6,7-dihydropyrazolo[1,5-a]pyrazine-3,5(4H)-dicarboxamide]
0.01 to 10 nM	0.01 to 10 nM			NC(=O)c1c(-c2cccc(Cl)c2)nn2c1CN(C(=O)NC13CCC(CC1)CC3)CC2 [Compound A79, N^5-(Bicyclo[2.2.2]octan-1-yl)-2-(3-chlorophenyl)-6,7-dihydropyrazolo[1,5-a]pyrazine-3,5(4H)-dicarboxamide]
10 to 100 nM	10 to 100 nM	43 nM	12.5 nM	CC(C)(C)NC(=O)N1CCn2nc(-c3cccc(C#N)c3)c(C(N)=O)c2C1 [Compound 114, N^5-(tert-Butyl)-2-(3-cyanophenyl)-6,7-dihydropyrazolo[1,5-a] pyrazine-3,5(4H)-dicarboxamide]
0.01 to 10 nM	0.01 to 10 nM			CC12CC3(C)CC(C)(C1)CC(NC(=O)N1CCn4nc(-c5cccc(Cl)c5)c(C(N)=O)c4C1)(C2)C3 [Compound A85, 2-(3-Chlorophenyl)-N^5-((3s,5s,7s)-3,5,7-trimethyladamantan-1-yl)-6,7-dihydropyrazolo[1,5-a]pyrazine-3,5(4H)-dicarboxamide]
0.01 to 10 nM	0.01 to 10 nM			CC1CC(NC(=O)N2CCn3nc(-c4cccc(Cl)c4)c(C(N)=O)c3C2)C1 (single isomer, unassigned) [Compound 250, 2-(3-Chlorophenyl)-N^5-(3-methylcyclobutyl)-6,7-dihydropyrazolo[1,5-a]pyrazine-3,5(4H)-dicarboxamide]
0.01 to 10 nM	0.01 to 10 nM			NC(=O)c1c(-c2cccc(Cl)c2)nn2c1CN(C(=O)NCC1CCC(F)(F)CC1)CC2 [Compound 180, 2-(3-Chlorophenyl)-N^5-((4,4-difluorocyclohexyl)methyl)-6,7-dihydropyrazolo[1,5-a]pyrazine-3,5(4H)-dicarboxamide]
0.01 to 10 nM	0.01 to 10 nM			CC12CC3(C)CC(C)(C1)CC(NC(=O)N1CCn4nc(-c5ccc(F)c(Cl)c5)c(C(N)=O)c4C1)(C2)C3 [Compound A65, 2-(3-Chloro-4-fluorophenyl)-N^5-((3s,5s,7s)-3,5,7-trimethyladamantan-1-yl)-6,7-dihydropyrazolo[1,5-a]pyrazine-3,5(4H)-dicarboxamide]
0.01 to 10 nM	0.01 to 10 nM			CC1(NC(=O)N2CCn3nc(-c4cccc(Cl)c4)c(C(N)=O)c3C2)CC2(CC2)C1 [Compound 318, 2-(3-Chlorophenyl)-N^5-(5-methylspiro[2.3]hexan-5-yl)-6,7-dihydropyrazolo[1,5-a]pyrazine-3,5(4H)-dicarboxamide]
100 to 2000 nM	10 to 100 nM			CC(C)(C)NC(=O)N1CCn2nc(-c3ccnc(F)c3)c(C(N)=O)c2C1 [Compound 112, N^5-(tert-Butyl)-2-(2-fluoropyridin-4-yl)-6,7-dihydropyrazolo[1,5-a] pyrazine-3,5(4H)-dicarboxamide]
100 to 2000 nM	10 to 100 nM			CC(C)(C)NC(=O)N1CCn2nc(-c3cccc(N)c3)c(C(N)=O)c2C1 [Compound 120, 2-(3-Aminophenyl)-N^5-(tert-butyl)-6,7-dihydropyrazolo [1,5-a]pyrazine-3,5(4H)-dicarboxamide]
0.01 to 10 nM	0.01 to 10 nM			CC1(NC(=O)N2CCn3nc(-c4ccc(Cl)c(Cl)c4)c(C(N)=O)c3C2)CC2(C1)CC2(F)F (single isomer, unassigned) [Compound 328, 2-(3,4-Dichlorophenyl)-N^5-(1,1-difluoro-5-methylspiro[2.3]hexan-5-yl)-6,7-dihydropyrazolo[1,5-a]pyrazine-3,5(4H)-dicarboxamide]
100 to 2000 nM	10 to 100 nM			COCCNC(=O)C(C)(C)NC(=O)N1CCn2nc(-c3ccc(F)c(Cl)c3)c(C(N)=O)c2C1 [Compound 217, 2-(3-Chloro-4-fluorophenyl)-N^5-(1-((2-methoxyethyl)amino)-2-methyl-1-oxopropan-2-yl)-6,7-dihydropyrazolo[1,5-a] pyrazine-3,5(4H)-dicarboxamide]
0.01 to 10 nM	0.01 to 10 nM			CC1Cn2nc(-c3ccc(F)c(Cl)c3)c(C(N)=O)c2CN1C(=O)NC1(C)CC(F)(F)C1 (single isomer, unassigned) [Compound 345, 2-(3-Chloro-4-fluorophenyl)-N^5-(3,3-difluoro-1-methylcyclobutyl)-6-methyl-6,7-dihydropyrazolo[1,5-a]pyrazine-3,5(4H)-dicarboxamide]

The next lines start with the molecule.

Structure (SMILES)	IC50 ([1]; read-out: CK1ε IC50 range)	IC50 ([2]; read-out: CK1δ IC50 range)	IC50 ([1]; read-out: CK1ε)	IC50 ([2]; read-out: CK1δ)
NC(=O)c1c(-c2cccc(Cl)c2)nn2c1CN(C(=O)NC13C4C5C1C1C3C4C51F)CC2 (stereo not drawn) [Compound A88, N^5-(4-Fluorocuban-1-yl)-2-(3-chlorophenyl)-6,7-dihydropyrazolo[1,5-a]pyrazine-3,5(4H)-dicarboxamide]	0.01 to 10 nM	0.01 to 10 nM		
CC(C)(C)NC(=O)N1CCn2nc(-c3cccc(NS(C)(=O)=O)c3)c(C(N)=O)c2C1 [Compound 118, N^5-(tert-Butyl)-2-(3-(methylsulfonamido)phenyl)-6,7-dihydropyrazolol[1,5-a] pyrazine-3,5(4H)-dicarboxamide]	100 to 2000 nM	100 to 2000 nM		
CC1CN(C(=O)NC2CC(F)(F)C2)Cc2c(C(N)=O)c(-c3cccc(Cl)c3)nn21 (single isomer, unassigned) [Compound A111, 2-(3-Chlorophenyl)-N^5-(3,3-difluorocyclobutyl)-7-methyl-6,7-dihydropyrazolo[1,5-a]pyrazine-3,5(4H)-dicarboxamide]	0.01 to 10 nM	0.01 to 10 nM		
NC(=O)c1c(-c2ccc(F)c(Cl)c2)nn2c1CN(C(=O)NC1CCC(F)(F)CC1)C[C@H]2C(F)F [Compound A13, (S)-2-(3-Chloro-4-fluorophenyl)-N^5-(4,4-difluorocyclohexyl)-7-(difluoromethyl)-6,7-dihydropyrazolo[1,5-a] pyrazine-3,5(4H)-dicarboxamide]	0.01 to 10 nM	0.01 to 10 nM		
NC(=O)c1c(-c2ccc(F)c(Cl)c2)nn2c1CN(C(=O)NC1CCC(F)(F)CC1)C[C@@H]2C(F)F [Compound A14, (R)-2-(3-Chloro-4-fluorophenyl)-N^5-(4,4-difluorocyclohexyl)-7-(difluoromethyl)-6,7-dihydropyrazolo[1,5-a] pyrazine-3,5(4H)-dicarboxamide]	0.01 to 10 nM	0.01 to 10 nM		
C[C@H]1CN(C(=O)NC2CC(F)(F)C2)Cc2c(C(N)=O)c(-c3ccc(Cl)c(Cl)c3)nn21 [Compound A36, (S)-2-(3,4-Dichlorophenyl)-N^5-(3,3-difluorocyclobutyl)-7-methyl-6,7-dihydropyrazolo[1,5-c]pyrazine-3,5(4H)-dicarboxamide]	0.01 to 10 nM	0.01 to 10 nM		
NC(=O)c1c(-c2cccc(Cl)c2)nn2c1CN(C(=O)N[C@H]1C[C@@H](OC(F)(F)F)C1)CC2 [Compound 262, 2-(3-Chlorophenyl)-N^5-((1r,3r)-3-(trifluoromethoxy)cyclobutyl)-6,7-dihydropyrazolo[1,5-a] pyrazine-3,5(4H)-dicarboxamide]	0.01 to 10 nM	0.01 to 10 nM		
CC(C)(C)NC(=O)N1Cc2c(C(N)=O)c(-c3cccc(F)c3)nn2C2(CC2)C1 [Compound A131, N^5′-(tert-Butyl)-2′-(3-fluorophenyl)-4′H-spiro[cyclopropane-1,7′-pyrazolo[1,5-a]pyrazine]-3′,5′(6′H)-dicarboxamide]	10 to 100 nM	10 to 100 nM		
CC(C)(C)NC(=O)N1CCn2nc(-c3cc(F)cc(C(F)(F)F)c3)c(C(N)=O)c2C1 [Compound 155, N^5-(tert-Butyl)-2-(3-fluoro-5-(trifluoromethyl)phenyl)-6,7-dihydropyrazolo[1,5-a] pyrazine-3,5(4H)-dicarboxamide]	100 to 2000 nM	100 to 2000 nM		
NC(=O)c1c(-c2cccc(F)c2)nn2c1CN(C(=O)Nc1ccc(O)nc1)CC2 [Compound 88, 2-(3-Fluorophenyl)-N^5-(6-hydroxypyridin-3-yl)-6,7-dihydropyrazolo[1,5-a]pyrazine-3,5(4H)-dicarboxamide]	10 to 100 nM	10 to 100 nM		
NC(=O)c1c(-c2ccc(F)c(Cl)c2)nn2c1CN(C(=O)NC1CC(F)(F)C1)C[C@@H]2CF [Compound A114, (R)-2-(3-Chloro-4-fluorophenyl)-N^5-(3,3-difluorocyclobutyl)-7-(fluoromethyl)-6,7-dihydropyrazolo[1,5-a]pyrazine-3,5(4H)-dicarboxamide]	0.01 to 10 nM	0.01 to 10 nM		
CC(C)(C)NC(=O)N1CCn2nc(-c3ccc(F)nc3F)c(C(N)=O)c2C1 [Compound 125, N^5-(tert-Butyl)-2-(2,6-difluoropyridin-3-yl)-6,7-dihydropyrazolo[1,5-a] pyrazine-3,5(4H)-dicarboxamide]	100 to 2000 nM	100 to 2000 nM		
